Assays:
Type in all cases: physicochemical
[1] = Stability of crystalline form compared with the earlier form; conditions: compared with earlier material Form A
[2] = Stability after mechanical grinding (milling)
[3] = Thermal stability of crystal form
Protocol: Melting points were performed either on a Thomas Hoover melting point apparatus or a Mettler FP900 Thermosystem melting point apparatus. Melting ranges were determined by differential scanning calorimetry on a TA Instruments Differential Scanning Calorimeter (Model 2100 controller, Model 912 dual calorimeter). The sample (1-2 mg) was placed in an unsealed aluminum pan and heated at 10° C./minute.

Row | SMILES | stability relative to Form A [1] | stability after mechanical grinding (milling) [2] | thermal stability [3]
1 | Cc1onc(-c2ccccc2)c1-c1ccc(S(N)(=O)=O)cc1 [Form B, 4-[5-methyl-3-phenylisoxazol-4-yl]benzenesulfonamide] | more stable | – | –
2 | Cc1onc(-c2ccccc2)c1-c1ccc(S(N)(=O)=O)cc1 [Form A, 4-[5-methyl-3-phenylisoxazol-4-yl]benzenesulfonamide] | – | unstable | thermally unstable
